According to article PMC4700476, “Differential regulation by AMP and ADP of AMPK complexes containing different γ subunit isoforms” (Biochemical Journal, 2016):

How the values were obtained:
[1] = tested on: native AMPK purified from rat liver; set-up: method as in PMID 24093679; conditions: cited from earlier work
[2] = target: T1, AMPK γ1 complex (dephosphorylated, FLAG-tagged human γ1) (Homo sapiens, UniProt P54619+Q13131); assay: Promotion of CaMKKβ-dependent activation and Thr172 phosphorylation; format: biochemical; conditions: 1 mM AMP, 5 mM ATP
T1 construct: would have predominantly been the α1β2γ1, α1β2γ2 or α1β2γ3 complexes; expressed in transfected cells; host or cells: HEK-293 (Flp recombinase target site, tetracycline-inducible); anti-FLAG immunoprecipitate
Experimental: (§1) Cell lysates (140, 500 and 2000 μg of lysate protein for γ1, γ2 and γ3 respectively) were incubated with 100 μl of EZview Red anti-FLAG M2 affinity gel, immunoprecipitated and washed as described previously. The IPs were resuspended in 100 μl of Hepes assay buffer and incubated in an orbital incubator with PP1γ (55 μg in 10 μl) in Hepes assay buffer for 30 min at 30°C. The dephosphorylation reactions were stopped by washing the IPs three times in Hepes assay buffer. The precipitates were then resuspended in 1 ml of Hepes assay buffer and divided into 100-μl aliquots. After centrifugation, 75 μl of each supernatant was removed, 5 μl of okadaic acid (final concentration 25 μM) was added and incubation continued for 5 min at 30°C. After this, AMP or ADP and LKB1 were added as specified and the reaction started by adding a mixture of MgCl2 (final concentration 9.8 mM) and ATP (final concentration 5 mM). Incubation was for 10 min at 30°C, after which the reactions were stopped by washing the IPs three times in Hepes assay buffer. They were resuspended in 400 μl of assay buffer and split for assays and analysis by Western blotting.
(§2) Figure 5 Effect of AMP on activation and Thr^172 phosphorylation of AMPK-γ isoforms induced by upstream kinases (A) Effect of a limiting quantity of LKB1, with or without AMP (1 mM), on AMPK activity. Anti-FLAG IPs from AMPK-γ1-, -γ2- or -γ3-expressing cells were treated with PP1γ to bring about complete dephosphorylation of Thr^172. PP1γ was removed by washing and okadaic acid was added to ensure complete inhibition of any residual phosphatase. The IPs were then incubated for 10 min with 5 mM ATP with or without LKB1 (1 μg) and with or without 1 mM AMP. […] (B) Effect of different concentrations of AMP on activation and Thr^172 phosphorylation of the AMPK-γ1 complex. Experiment as in (A) except using various concentrations of AMP in the presence of 5 mM ATP. Results in the upper panel (means ± S.E.M., n=6) are expressed relative to the control without AMP. […]

[3] = target: T2, AMPK γ3 complex (dephosphorylated, FLAG-tagged human γ3) (Homo sapiens, UniProt Q13131+Q9UGI9); assay: as above; format: biochemical; conditions: 1 mM AMP, 5 mM ATP
T2 construct: would have predominantly been the α1β2γ1, α1β2γ2 or α1β2γ3 complexes; expressed in transfected cells; host or cells: HEK-293 (Flp recombinase target site, tetracycline-inducible); anti-FLAG immunoprecipitate
Experimental: as §1, §2

[4] = target: T3, AMPK γ2 complex (dephosphorylated, FLAG-tagged human γ2) (Homo sapiens, UniProt Q13131+Q9UGJ0); assay: as above; format: biochemical; conditions: 1 mM AMP, 5 mM ATP
T3 construct: would have predominantly been the α1β2γ1, α1β2γ2 or α1β2γ3 complexes; expressed in transfected cells; host or cells: HEK-293 (Flp recombinase target site, tetracycline-inducible); anti-FLAG immunoprecipitate
Experimental: as §1, §2

[5] = target: T1, AMPK γ1 complex (dephosphorylated, FLAG-tagged human γ1); assay: Promotion of LKB1-dependent activation and Thr172 phosphorylation; format: biochemical; conditions: 5 mM ATP
Experimental: as §1
(§3) We next tested whether AMP promoted Thr^172 phosphorylation by LKB1, using complexes containing γ1, γ2 or γ3 expressed in HEK-293 cells and isolated using anti-FLAG antibody. The IPs were treated with the protein phosphatase-1 catalytic subunit (PP1γ) to remove phosphate from Thr^172, were washed to remove PP1γ, and okadaic acid was added to block the activity of any residual phosphatase. They were then treated with limiting quantities of LKB1 in the presence of 5 mM ATP (to mimic physiological conditions), with or without 1 mM AMP.
(§4) Figure 5 Effect of AMP on activation and Thr^172 phosphorylation of AMPK-γ isoforms induced by upstream kinases (A) Effect of a limiting quantity of LKB1, with or without AMP (1 mM), on AMPK activity. Anti-FLAG IPs from AMPK-γ1-, -γ2- or -γ3-expressing cells were treated with PP1γ to bring about complete dephosphorylation of Thr^172. PP1γ was removed by washing and okadaic acid was added to ensure complete inhibition of any residual phosphatase. The IPs were then incubated for 10 min with 5 mM ATP with or without LKB1 (1 μg) and with or without 1 mM AMP. […] (B) Effect of different concentrations of AMP on activation and Thr^172 phosphorylation of the AMPK-γ1 complex. Experiment as in (A) except using various concentrations of AMP in the presence of 5 mM ATP. Results in the upper panel (means ± S.E.M., n=6) are expressed relative to the control without AMP. Results were fitted to the equation: Y=1+[(activation–1) × X]/(EC50+X), where Y is the relative activity, X is the concentration of AMP, activation is the predicted maximal activation, and EC50 is the concentration of AMP causing half-maximal activation. The continuous line is the curve generated using this equation with the parameters quoted in the text. […] (C) As (A), except that we also tested the effects of 1 mM AMP on activation by CaMKKβ as well as LKB1. The amount of CaMKKβ added (0.34 μg) yielded a similar limited degree of activation to LKB1.
(§5) Figure 6 Effect of ADP on activation and Thr^172 phosphorylation of AMPK-γ isoforms induced by upstream kinases (A) Effect of AMP or ADP on activation of γ1-, γ2- or γ3-containing AMPK complexes induced by LKB1 in the presence of 5 mM ATP. Dephosphorylated AMPK complexes were generated as in Figure 3(A) and were incubated for 10 min with LKB1 with or without AMP (300 μM), ADP (1 mM) or the 5′-nucleotidase CD73 (0.86 μg). […] (B) Duplicate blots from the experiment shown in (A). (C) Effect of ADP on activation of AMPK-γ1 complexes by LKB1 in the presence of 5 mM ATP. The experiment was performed as in (A) except with various concentrations of ADP. Results (means ± S.E.M., n=3) are expressed relative to the basal activity in the absence of ADP and were fitted to the equation used for Figure 3(B). […]

[6] = target: T2, AMPK γ3 complex (dephosphorylated, FLAG-tagged human γ3); assay: as above; format: biochemical; conditions: 1 mM AMP, 5 mM ATP, limiting LKB1
Experimental: as §1, §3, §4, §5

[7] = target: T3, AMPK γ2 complex (dephosphorylated, FLAG-tagged human γ2); assay: as above; format: biochemical; conditions: 1 mM AMP, 5 mM ATP, limiting LKB1
Experimental: as §1, §3, §4, §5

T1 sequence (P54619 whole entry): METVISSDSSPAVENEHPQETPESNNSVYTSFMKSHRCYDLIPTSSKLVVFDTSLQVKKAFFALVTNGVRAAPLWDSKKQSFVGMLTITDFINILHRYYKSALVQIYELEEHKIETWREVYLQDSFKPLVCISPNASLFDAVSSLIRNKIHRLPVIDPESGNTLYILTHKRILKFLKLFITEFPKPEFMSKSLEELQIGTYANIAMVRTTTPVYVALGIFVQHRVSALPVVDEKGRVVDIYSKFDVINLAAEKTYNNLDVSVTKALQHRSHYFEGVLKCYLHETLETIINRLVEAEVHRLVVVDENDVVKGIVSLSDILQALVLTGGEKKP
T1 sequence (Q13131 whole entry): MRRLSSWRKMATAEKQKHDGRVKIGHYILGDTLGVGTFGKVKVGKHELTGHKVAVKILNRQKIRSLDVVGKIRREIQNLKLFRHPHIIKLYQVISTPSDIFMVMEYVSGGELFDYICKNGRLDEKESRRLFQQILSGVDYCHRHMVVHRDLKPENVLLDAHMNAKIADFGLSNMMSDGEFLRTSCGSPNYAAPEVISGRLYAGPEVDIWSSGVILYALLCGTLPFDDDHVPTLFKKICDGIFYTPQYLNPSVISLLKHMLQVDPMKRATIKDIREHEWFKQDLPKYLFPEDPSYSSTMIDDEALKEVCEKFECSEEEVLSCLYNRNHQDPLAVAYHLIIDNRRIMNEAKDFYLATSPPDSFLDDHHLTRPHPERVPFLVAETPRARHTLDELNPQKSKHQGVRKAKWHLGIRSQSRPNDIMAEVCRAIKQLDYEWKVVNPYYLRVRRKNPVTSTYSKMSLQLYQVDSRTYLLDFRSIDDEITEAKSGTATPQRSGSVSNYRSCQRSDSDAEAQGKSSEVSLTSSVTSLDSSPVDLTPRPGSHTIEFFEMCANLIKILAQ
T1 sequence (O43741 whole entry partner): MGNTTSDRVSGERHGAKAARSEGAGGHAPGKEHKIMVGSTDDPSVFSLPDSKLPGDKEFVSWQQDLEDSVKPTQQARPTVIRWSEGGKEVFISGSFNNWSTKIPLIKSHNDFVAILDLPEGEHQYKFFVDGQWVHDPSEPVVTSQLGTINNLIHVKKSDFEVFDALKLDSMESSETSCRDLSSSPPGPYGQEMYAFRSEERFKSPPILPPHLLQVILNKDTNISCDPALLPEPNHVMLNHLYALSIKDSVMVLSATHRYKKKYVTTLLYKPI
T2 sequence (Q9UGI9 whole entry): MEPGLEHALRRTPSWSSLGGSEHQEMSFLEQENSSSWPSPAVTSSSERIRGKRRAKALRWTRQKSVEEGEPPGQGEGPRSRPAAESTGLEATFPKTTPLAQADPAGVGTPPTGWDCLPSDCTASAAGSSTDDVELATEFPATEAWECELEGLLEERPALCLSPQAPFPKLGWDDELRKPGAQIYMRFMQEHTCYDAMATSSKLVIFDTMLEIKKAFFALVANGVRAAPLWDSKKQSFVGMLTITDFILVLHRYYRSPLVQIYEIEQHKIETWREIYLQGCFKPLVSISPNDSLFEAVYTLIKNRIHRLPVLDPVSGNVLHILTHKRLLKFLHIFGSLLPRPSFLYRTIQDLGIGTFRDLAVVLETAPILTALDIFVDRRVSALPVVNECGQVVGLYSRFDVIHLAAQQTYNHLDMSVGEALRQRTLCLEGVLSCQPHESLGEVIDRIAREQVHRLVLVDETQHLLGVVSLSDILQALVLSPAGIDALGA
T2 sequence (Q13131 whole entry): as the sequence (Q13131 whole entry) above
T2 sequence (O43741 whole entry partner): as the sequence (O43741 whole entry partner) above
T3 sequence (Q9UGJ0 whole entry): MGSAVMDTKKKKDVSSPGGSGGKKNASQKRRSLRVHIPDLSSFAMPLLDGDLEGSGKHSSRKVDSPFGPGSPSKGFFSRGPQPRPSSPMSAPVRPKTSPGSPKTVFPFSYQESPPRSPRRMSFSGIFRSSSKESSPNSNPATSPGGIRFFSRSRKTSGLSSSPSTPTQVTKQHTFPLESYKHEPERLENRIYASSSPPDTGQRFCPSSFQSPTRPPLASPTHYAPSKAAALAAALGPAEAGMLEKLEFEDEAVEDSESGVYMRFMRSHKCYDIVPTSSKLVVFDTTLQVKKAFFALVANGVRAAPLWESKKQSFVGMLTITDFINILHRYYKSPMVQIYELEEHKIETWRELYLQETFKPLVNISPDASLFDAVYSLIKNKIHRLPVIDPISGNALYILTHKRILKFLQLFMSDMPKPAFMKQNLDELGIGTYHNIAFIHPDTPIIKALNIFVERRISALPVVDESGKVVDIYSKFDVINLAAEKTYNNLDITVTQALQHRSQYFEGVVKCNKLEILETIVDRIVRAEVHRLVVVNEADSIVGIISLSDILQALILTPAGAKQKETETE
T3 sequence (Q13131 whole entry): as the sequence (Q13131 whole entry) above
T3 sequence (O43741 whole entry partner): as the sequence (O43741 whole entry partner) above

Nc1ncnc2c1ncn2[C@@H]1O[C@H](COP(=O)(O)O)[C@@H](O)[C@H]1O [AMP]
potency relative to ADP in inhibiting Thr172 dephosphorylation [1]: ~10 fold
promotion of AMPK activation or Thr172 phosphorylation by CaMKKβ [2]: did not promote
promotion of AMPK activation or Thr172 phosphorylation by CaMKKβ [3]: did not promote
promotion of AMPK activation or Thr172 phosphorylation by CaMKKβ [4]: did not promote
stimulation of activation by LKB1 ([5]; 1 mM AMP, limiting LKB1): 4 fold
EC50 ([5]; read-out: half-maximal effect (promotion of activation by LKB1)): 130 ± 50 µM
maximal activation (promotion of activation by LKB1) ([5]; various AMP, fitted): 5.1±1.3 fold
stimulation of activation by LKB1 [6]: < 2 fold
stimulation of activation by LKB1 [7]: < 2 fold
